Laboratory results taken from patent publication US11028085B2, “Substituted isoindolin-1-ones and 2,3-dihydro-1h-pyrrolo[3,4-c]pyridin-1-ones as hpk1 antagonists” (Nimbus Saturn, Inc., priority 2019, dated 2021).
Structures can show the parent of a compound that is named as a salt.

target: HPK1 (Homo sapiens (Human), UniProt Q92918); test: HPK1 biochemical enzyme assay (microfluidic mobility shift assay); conditions: 1.5 nM HPK1, ATP 1 mM final, 60 min at RT, Caliper EZ Reader; read-out: HPK1 1000UMATP caliper IC50
Experimental: HPK1 biochemical enzyme assay: HPK1 enzyme inhibition was measured using a microfluidic mobility shift assay. […] Test compounds were titrated in ten point curves (top final assay concentration […]), and preincubated with enzyme/substrate mix for 30 min prior to initiation of the reaction by addition of ATP (1 mM final concentration) and substrate (1 μM final concentration; Carna Biosciences) diluted in assay buffer supplemented by MgCl2 (final assay concentration of 5 mM). Following 60 min incubation at RT, the reaction was terminated by addition of 60 µl/well termination buffer (Carna Biosciences) and signal determination using a Caliper EZ Reader (Perkin Elmer, UK). […] The compound numbers correspond to the compound numbers in Table 1.

Chain of HPK1 (Q92918 whole entry): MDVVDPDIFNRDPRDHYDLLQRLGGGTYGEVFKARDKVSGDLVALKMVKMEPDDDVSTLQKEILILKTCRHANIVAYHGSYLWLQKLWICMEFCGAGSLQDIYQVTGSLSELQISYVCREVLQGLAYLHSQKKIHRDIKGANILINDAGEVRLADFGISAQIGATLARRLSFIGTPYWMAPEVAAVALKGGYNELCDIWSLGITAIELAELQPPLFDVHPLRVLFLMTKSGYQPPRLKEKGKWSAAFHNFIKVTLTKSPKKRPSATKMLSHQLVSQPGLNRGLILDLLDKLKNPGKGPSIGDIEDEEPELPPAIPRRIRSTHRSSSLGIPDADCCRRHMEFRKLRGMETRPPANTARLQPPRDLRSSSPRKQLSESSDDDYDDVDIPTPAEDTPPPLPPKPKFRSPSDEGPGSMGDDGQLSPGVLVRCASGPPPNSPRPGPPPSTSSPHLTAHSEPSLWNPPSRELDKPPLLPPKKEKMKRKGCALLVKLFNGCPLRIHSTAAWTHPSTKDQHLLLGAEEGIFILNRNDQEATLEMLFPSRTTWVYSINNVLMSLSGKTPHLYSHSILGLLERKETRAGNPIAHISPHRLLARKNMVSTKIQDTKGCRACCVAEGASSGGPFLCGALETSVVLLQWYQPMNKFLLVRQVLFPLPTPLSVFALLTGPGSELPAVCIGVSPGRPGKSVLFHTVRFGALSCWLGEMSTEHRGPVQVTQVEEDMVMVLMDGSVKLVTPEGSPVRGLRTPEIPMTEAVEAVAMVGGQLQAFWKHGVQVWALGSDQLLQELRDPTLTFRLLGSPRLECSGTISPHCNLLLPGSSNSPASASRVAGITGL

Molecule | IC50 [nM]
Cn1ccc2c(-c3ncc(Nc4ccc(N5CCNCC5)cn4)c4c3CNC4=O)cccc21 [I-266, 4-(1-methyl-1H-indol-4-yl)-7-((5-(piperazin-1-yl)pyridin-2-yl)amino)-2,3-dihydro-1H-pyrrolo[3,4-c]pyridin-1-one] | < 100
O=C1NCc2c(-c3cnc4cc(F)ccn34)ccc(Nc3ccc(C4CCOCC4)cn3)c21 [I-341] | < 100
O=C1NCc2c(-c3cnc4cc(F)ccn34)ccc(Nc3ccn(C4CCOCC4)n3)c21 [I-382, 4-(7-fluoroimidazo [1,2-a]pyridin-3-yl)-7-((1-(tetrahydro-2H-pyran-4-yl)-1H-pyrazol-3-yl)amino)isoin-dolin-1-one] | > 1000
O=C1NCc2c(-c3ncc4cnccn34)ccc(Nc3ccc(N4CCC(O)CC4)cn3)c21 [I-398, 7-((5-(4-hydroxypipendin-1-yl)pyridin-2-yl)amino)-4-(imidazo[1,5-a]pyrazin-3-yl)isoindolin-1-one] | 100 to 1000
Cc1ccc2c(-c3ccc(Nc4ccc(CN5CCOCC5)cn4)c4c3CNC4=O)cnn2c1 [I-469, 4-(6-methylpyrazolo[1,5-a]pyridin-3-yl)-7-[[5-(morpholino-methyl)-2-pyridyl]amino] isoindolin-1-one] | < 100
Cc1ccn2c(-c3ncc(Nc4cccc(N5CC[C@@H]6CNC[C@@H]65)n4)c4c3CNC4=O)cnc2c1F [I-480, 7-[[6-[(3aR,6aR)-3.3a,4,5,6.6a-hexahydro-2H-pyrrolo[2,3-c]pyrrol-1-yl]-2-pyridyl]amino]-4-(8-fluoro-7-methyl-imidazo[1,2-a]pyridin-3-yl)-2,3-dihydropyrrolo [3,4-c]pyridin-1-one] | 100 to 1000
Cc1ccn2c(-c3ncc(Nc4cccc(N5CCC6CNCC65)n4)c4c3CNC4=O)cnc2c1F (stereo not drawn) [I-481] | < 100
CC(C)(O)[C@H]1CN(c2ccc(Nc3ccc(-c4cnc5cnccn45)c4c3C(=O)NC4)nc2)CCO1 [I-486, 7-[[5-[(2R)-2-(1-hydroxy-1-methylethyl)morpholin-4-yl]-2-pyridyl]amino]-4-imidazo[1,2-a]pyrazin-3-yl-isoindolin-1-one] | < 100
O=C1NCc2c(-c3cnc4cc(F)ccn34)ccc(Nc3ccc(N4CCC(N5CCOCC5)CC4)cn3)c21 [I-488, 4-(7-fluoroimidazo [1,2-a]pyridin-3-yl)-7-[[5-(4-morpholino-1-piperidyl)-2-pyridyl]amino] isoindolin-1-one] | < 100
Cc1cccn2c(-c3ncc(Nc4ccc(C5CCOC5)c(CN(C)C)n4)c4c3CNC4=O)cnc12 (stereo not drawn) [I-539] | < 100
C[C@@H]1CN(c2ccc(Nc3ccc(-c4cnc5cc(F)ccn45)c4c3C(=O)NC4)nc2CN(C)C)CCO1 [I-541, 7-[[6-[(dimethylamino)-methyl]-5-[(2R)-2-methylmorpho-lin-4-yl]-2-pyridyl]amino] 4-(7-fluoroimidazo [1,2-a]pyridin-3-yl)isoindolin-1-one] | < 100
Cn1ccc2c(-c3ncc(Nc4ccc(C5CCOC5)c(CN5CCCC5)n4)c4c3CNC4=O)ccnc21 (stereo not drawn) [I-552, 4-(1-methylpyrrolo [2,3-b]pyridin-4-yl)-7-[[6-(pyrrolidin-1-ylmethyl)-5-tetralndrofuran-3-yl-2-pyridyl]amino]-2,3-dihydropyrrolo [3,4-c]pyridin-1-one] | < 100
O=C1NCc2c(-c3cnc4cc(F)ccn34)ccc(Nc3ccc(N4CCO[C@@H]5CNC[C@@H]54)cn3)c21 [I-690] | < 100
O=C1NCc2c(-c3cnc4cc(F)ccn34)ccc(Nc3ccc(N4CCO[C@H]5CNC[C@H]54)cn3)c21 [I-694, 4-(7-fluoroimidazo [1,2-a]pyridin-3-yl)-7-((5-((4aR,7aS)-hexahydro-pyrrolo[3,4-b][1.4]oxazin-4(4aH)-yl)pyridin-2-yl)amino)isoin-dolin-1-one] | < 100
CN1CCN(c2nc(Nc3ccc(-c4cnc5cc(F)ccn45)c4c3C(=O)NC4)ccc2[C@H]2CCOC2)CC1 [I-801, (R)-4-(7-fluoroimidazo [1,2-a]pyridin-3-yl)-7-((6-(4-methylpiperazin-1-yl)-5-(tetrahydrofuran-3-yl)pyridin-2-yl)amino)isoin-dolin-1-one] | < 100
CN1CCN(c2nc(Nc3ccc(-c4cnc5cc(F)ccn45)c4c3C(=O)NC4)ccc2[C@@H]2CCOC2)CC1 [I-802, (S)-4-(7-fluoroimidazo [1,2-a]pyridin-3-yl)-7-((6-(4-methylpiperazin-1-yl)-5-(tetrahydrofuran-3-yl)pyridin-2-yl)amino)isoin-dolin-1-one] | < 100
CN(C)Cc1nc(Nc2cnc(-c3ccnc4c3ccn4C)c3c2C(=O)NC3)ccc1O[C@@H]1CCOC1 [I-805, (R)-7-((6-((dimethylamino)-methyl)-5-((tetrahydrofur-an-3-yl)oxy)pyridin-2-yl)amino)-4-(1-methyl-1H-pyrrolo[2,3-b]pyridin-4-yl)-2,3-dihydro-1H-pyrrolo[3,4-c]pyridin-1-one] | < 100
CN1CC(Oc2nc(Nc3ccc(-c4cnc5cc(F)ccn45)c4c3C(=O)NC4)ccc2[C@@H]2CCOC2)C1 [I-816, (S)-4-(7-fluoroimidazo [1,2-a]pyridin-3-yl)-7-((6-((1-methylazetidin-3-yl]oxy)-5-(THF-3-yl)pyridin-2-yl)amino)isoin-dolin-1-one] | < 100
COCC1(O)CCN(c2ccc(Nc3cnc(-c4ccnc5c4ccn5C)c4c3C(=O)NC4)nc2CN(C)C)CC1 [I-851, 7-1(6-[(dimethylamino)-methyl (-5-[4-hydroxy-4-(methoxymeth-yl)-1-piperidyl]-2-pyridyl]amino]-4-(1-methylpyrrolo [2,3-b]pyridin-4-yl)-2,3-dihydropyrrolo [3,4-c]pyridin-1-one Formate salt] | < 100
(R)-7-((6- ((dimethylamino)- methyl)-5-(3-(2- hydroxypropan- 2-yl)piperidin-1- yl)pyridin-2- yl)amino)-4-(7- fluoroimidazo [1,2-a]pyridin- 3-yl)isoindolin- 1-one [I-745] | < 100
(S)-7-((6- ((dimethylamino)- methyl)-5-(3-(2- hydroxypropan- 2-yl)piperidin-1- yl)pyridin-2- yl)amino)-4-(7- fluoroimidazo [1,2-a]pyridin- 3-yl)isoindolin- 1-one [I-746] | < 100
